For series [1], the system named is present invention protein (A24). The experiment in a line: Metabolism of compounds by the present invention protein (A24), reaction solution, HPLC. The class given is in vitro ADME, Streptomyces rutgersensis IFO 15875T. The settings on record: 12.5 ppm of compound, components A, B, C, 20 μl supernatant fraction of Example 65(2), 30° C. for 10 minutes.
In series [2] the test system is Barnyardgrass. The experiment in a line: Herbicidal activity test, foliage treatment. The class given is in vivo, Echinochloa crus-galli. Further details: key: 0: situations in which the condition of sprouting or vegetation at the time of examination of the plant utilized for the test was compared with and showed totally or substantially no difference with that of the untreated application; 10: situations in which the plant completely withered or the sprouting or vegetation was completely suppressed. The note with it: sprayed onto the foliage of plants cultivated 10 days, investigated after 16 days in a greenhouse. Here is the method: (§1) Soil was packed into a round plastic pot having a diameter of 10 cm and depth of 10 cm. Barnyardgrass, Blackgrass, Ivyleaf morningglory were seeded and cultivated in a greenhouse for 10 days. Five (5) parts of the test compound, 6 parts of sorpol3005X (Toho Chemical Company) and 89 parts of xylene were well mixed to produce an emulsion. A certain amount thereof was diluted with water containing 0.1% (v/v) of a sticking agent at a proportion of 1000 L for 1 hectare and was spread uniformly with a spray-gun onto the all sides of the foliage from above the plant cultivated in the above pot. After cultivating the plants for 16 days in a greenhouse, the herbicidal activity of the test compound was investigated.
(§2) In the above Tables 3 and 4, the strength of the herbicidal activity is shown stepwise as 0, 1, 2, 3, 4, 5, 6, 7, 8, 9, and 10.

The subject of the next series is Blackgrass. Briefly: Herbicidal activity test, foliage treatment. Set-up: key: 0: situations in which the condition of sprouting or vegetation at the time of examination of the plant utilized for the test was compared with and showed totally or substantially no difference with that of the untreated application; 10: situations in which the plant completely withered or the sprouting or vegetation was completely suppressed. The settings on record: sprayed onto the foliage of plants cultivated 10 days, investigated after 16 days in a greenhouse. It counts as in vivo, Alopercurus myosuroides. As for the experimental part:
as §1, §2

A further series has as its system Ivyleaf morningglory. Briefly: Herbicidal activity test, foliage treatment. The settings on record: sprayed onto the foliage of plants cultivated 10 days, investigated after 16 days in a greenhouse. It counts as in vivo, Ipomoea hederacea. Further details: key: 0: situations in which the condition of sprouting or vegetation at the time of examination of the plant utilized for the test was compared with and showed totally or substantially no difference with that of the untreated application; 10: situations in which the plant completely withered or the sprouting or vegetation was completely suppressed. As for the experimental part: as §1, §2

Series [3] relates to Barnyardgrass. Briefly: Herbicidal activity test, soil surface treatment. It counts as in vivo, Echinochloa crus-galli. Set-up: key: 0: situations in which the condition of sprouting or vegetation at the time of examination of the plant utilized for the test was compared with and showed totally or substantially no difference with that of the untreated application; 10: situations in which the plant completely withered or the sprouting or vegetation was completely suppressed. The settings on record: 500 g/ha, sprayed onto the surface of the soil after seeding, investigated after 19 days in a greenhouse. As for the experimental part: Soil was packed into a round plastic pot having a diameter of 10 cm and depth of 10 cm. Barnyardgrass, Blackgrass, Ivyleaf morningglory were seeded. Five (5) parts of the test compound, 6 parts of sorpol3005X (Toho Chemical Company) and 89 parts of xylene were well mixed to produce an emulsion. A certain amount thereof was diluted with water containing 0.1% (v/v) of a sticking agent at a proportion of 1000 L for 1 hectare and was spread uniformly with a spray-gun onto the surface of the soil. After cultivating the plants for 19 days in a greenhouse, the herbicidal activity was investigated.
as §2

In series [4] the test system is present invention protein (A11). Briefly: Detection of the ability to convert compound (II) to compound (III), E. coli pKSN849AF extract. It counts as in vitro ADME, Streptomyces nogalator IFO13445. The note with it: 3 ppm of compound (II) labeled with 14C, components A, B, 10 minutes at 30° C. As for the experimental part:
Reaction solutions of 30 μl were prepared and maintained for 1 hour at 30° C. The reaction solutions consisted of a 0.1M potassium phosphate buffer (pH7.0) containing 3 ppm of compound (II) labeled with ^14C, 2 mM of β-NADPH (hereinafter, referred to as “component A”) (Oriental Yeast Company), 0.2 mg/ml of a ferredoxin derived from spinach (hereinafter referred to as “component B”) (Sigma Company), 1 U/ml of ferredoxin reductase (hereinafter, referred to as “component C”) (Sigma Company) and 18 μl of the supernatant fraction recovered in Example 4(2). Further, there were prepared and maintained similarly reaction solutions having no addition of at least one component utilized in the composition of the above reaction solution, selected from component A, component B and component C. […] Next, the imaging plate was analyzed on Image Analyzer BAS2000 (Fuji Film Company). […]
Reaction solutions of 30 μl were prepared and maintained for 10 minutes at 30° C. […] Similarly to Example 4(3), the reaction solutions after the maintenance were extracted with ethyl acetate and the extracted layers were TLC analyzed. […] A spot corresponding to compound (III) was detected from the reaction solution containing E. coli pKSN849AF extract. In contrast, such a spot was not detected from the reaction solution containing E. coli pKSN2 extract.

In series [5] the test system is present invention protein (A20). Briefly: Detection of the ability to convert compound (II) to compound (III), E. coli pKSN1525F extract. The class given is in vitro ADME, Streptomyces lanatus IFO 12787T. The settings on record: 3 ppm of compound (II) labeled with 14C, components A, B, 10 minutes at 30° C. As for the experimental part: Reaction solutions of 30 μl were prepared and maintained for 10 minutes at 30° C. The reaction solutions consisted of a 0.1M potassium phosphate buffer (pH7.0) containing 3 ppm of compound (II) labeled with ^14C, 2 mM of β-NADPH (hereinafter, referred to as “component A”) (Oriental Yeast Company), 2 mg/ml of a ferredoxin derived from spinach (hereinafter referred to as “component B”) (Sigma Company), 0.1 U/ml of ferredoxin reductase (hereinafter, referred to as “component C”) (Sigma Company) and 23 μl of the supernatant fraction recovered in Example 32(2). Similarly to Example 4(3), the reaction solutions after the maintenance were extracted with ethyl acetate and the extracted layers were TLC analyzed. […] A spot corresponding to compound (III) was detected from the reaction solution containing E. coli pKSN849AF extract. In contrast, such a spot was not detected from the reaction solution containing E. coli pKSN2 extract.
Similarly to Example 32(3), reaction solutions of 30 μl were prepared and maintained for 10 minutes at 30° C. […] The reaction solutions after the maintenance were extracted with ethyl acetate and the extracted layers were TLC analyzed. […] A spot corresponding to compound (III) was detected from the reaction solution containing E. coli pKSN1525F extract. In contrast, such a spot was not detected from the reaction solution containing E. coli pKSN2 extract.

As to `Cn1c(C(F)(F)F)cc(=O)n(-c2cc(Oc3cccnc3OCC(=O)O)c(Cl)cc2F)c1=O` [compound (XII)], in series [1], the “concentration of the compound detected from metabolism solution (A24) compared to control solution (A24)” value is “lower”.

On to `C[C@@H](Oc1cc(-n2c(=O)cc(C(F)(F)F)n(C)c2=O)c(F)cc1Cl)C(=O)O` [compound (II)], for which the “Herbicidal Activity Barnyardgrass” value in the series on Barnyardgrass [2] (125 g/ha), in the series on Barnyardgrass [2] (500 g/ha) and with Barnyardgrass [3] was 10 each time. Further, the “Herbicidal Activity Blackgrass” value in the series on Blackgrass (125 g/ha) and in the series on Blackgrass (500 g/ha) was 10 in each case. Also, the “Herbicidal Activity Ivyleaf Morningglory” value with Ivyleaf morningglory (125 g/ha) and in the series with Ivyleaf morningglory (500 g/ha) was 10 in each case. Further, the “spot corresponding to compound (III) labeled with 14C (TLC)” value in series [4] and in series [5] was “detected” throughout.

Source of the values: patent US8293979B2, “Weed controller metabolism proteins, genes, thereof and use of the same” (Sumitomo Chemical Company, Limited, priority 2001, dated 2012).
